One assay concerns CHO-K1 cells. As to the kind of experiment: Cell viability, sulforhodamine B (SRB) assay, non-malignant cells. In kind it is cell-based, Chinese Hamster. The conditions noted are these: Cricetulus griseus. Background: Sulforhodamine B stains cellular protein and so reports cell mass.
A further assay deals with SW620 cells. Description: Antiproliferative activity (SRB, 0-8 days). The conditions noted are these: for viability at 1.25 µM / viability at 20 µM: Homo sapiens, read-out: Cell Viability (%) ± SE; for viability at 1.25 µM: SW620, 1.25 µM; for viability at 20 µM: SW620, 20 µM. It counts as cell-based, human. The procedure:
For this experiment, the same colorimetric method (SRB) from the evaluation of cell viability was used, although with some modifications. Initially, 2500 cells per well were seeded in 96-well culture plates, and a 24 h adherence period was performed at 37 °C in a 5% CO2 atmosphere. […] For this assay, incubation periods of 0, 2, 4, 6, and 8 days were used, and the fixation, staining, and reading conditions were the same as those previously described for the cytotoxicity assay.

Assay [1] concerns caspase 3, caspase 7, caspase 8 and p53 in SW480 cells. Description: Apoptotic biomarkers (ELISA). The conditions noted are these: SW480, treated with IC50, 48 h, vs control. In kind it is cell-based, human. (In general: An ELISA detects its analyte on a solid surface through an enzyme-linked reagent.)
The mark [2] stands for this setting: SW-620, 48 h, 2 days after plating.
Setting [3] is: SW-620, 96 h, 4 days after plating.
[4] abbreviates: SW-620, 144 h, 6 days after plating.
The mark [5] stands for this setting: SW-620, 192 h, 8 days after plating.

Where two headings read alike, the source gives them in different places.

In general, IC50 refers to the midpoint of a concentration-inhibition curve. Read a high IC50 as a need for much substance. In general, viability refers to a read-out of living cells in per cent, often relative to untreated cells.

On to `COc1cc(/C=C/C(=O)c2ccc(OCCCCCn3cc(Cn4cc(F)c(=O)[nH]c4=O)nn3)cc2)ccc1O` [Compound 6d, (E)-5-fluoro-1-((1-(5-(4-(3-(4-hydroxy-3-methoxyphenyl)acryloyl)phenoxy)pentyl)-1H-1,2,3-triazol-4-yl)methyl)pyrimidine-2,4(1H,3H)-dione], for which the IC50 in the assay on CHO-K1 cells (CHO-K1, 24 h) came out at 12.4 ± 1.34 µM; in the assay with CHO-K1 cells (CHO-K1, 48 h), 28.1 ± 1.95 µM. Also, the viability at 1.25 µM with SW620 cells (setting [2]) was determined as 91 ± 2.85%; in the assay on SW620 cells (setting [3]), 85.2 ± 3.23%; with SW620 cells (setting [4]), 67.3 ± 2.32%; with SW620 cells (setting [5]) it was 54.4 ± 2.76%. Also, the viability at 20 µM in the assay on SW620 cells (setting [2]) turned out to be 42.5 ± 4.57%; in the assay with SW620 cells (setting [3]), 7.1 ± 0.95%; in the assay with SW620 cells (setting [4]), 0%; with SW620 cells (setting [5]) it was 0%. Moreover, the “inhibition percentages (decrease in cell viability)” value in the assay with SW620 cells (SW620, from 5 µM, day 2) was “higher than 30%”. Moreover, the “levels of biomarkers (caspase 3, caspase 7, caspase 8, p53)” value in assay [1] is recorded as “no significant differences”.

For the origin of these results see paper PMC10144058, “New Hybrid Scaffolds Based on 5-FU/Curcumin: Synthesis, Cytotoxic, Antiproliferative and Pro-Apoptotic Effect” (Pharmaceutics, 2023).
